{"source": "patent US12409181B2", "about": "“Treatment for aortic aneurysms” (THE REGENTS OF THE UNIVERSITY OF CALIFORNIA, priority 2019, dated 2025)", "key": {"PKG1^RQ": {"target": "T1, PKG1^RQ (Homo sapiens, UniProt Q13976, R177Q)", "T1 construct": "FLAG (N); made in house; host or cells: transiently transfected 293T cells (ATCC, CRL3216)", "T1 sequence (Q13976 1-671 R177Q)": "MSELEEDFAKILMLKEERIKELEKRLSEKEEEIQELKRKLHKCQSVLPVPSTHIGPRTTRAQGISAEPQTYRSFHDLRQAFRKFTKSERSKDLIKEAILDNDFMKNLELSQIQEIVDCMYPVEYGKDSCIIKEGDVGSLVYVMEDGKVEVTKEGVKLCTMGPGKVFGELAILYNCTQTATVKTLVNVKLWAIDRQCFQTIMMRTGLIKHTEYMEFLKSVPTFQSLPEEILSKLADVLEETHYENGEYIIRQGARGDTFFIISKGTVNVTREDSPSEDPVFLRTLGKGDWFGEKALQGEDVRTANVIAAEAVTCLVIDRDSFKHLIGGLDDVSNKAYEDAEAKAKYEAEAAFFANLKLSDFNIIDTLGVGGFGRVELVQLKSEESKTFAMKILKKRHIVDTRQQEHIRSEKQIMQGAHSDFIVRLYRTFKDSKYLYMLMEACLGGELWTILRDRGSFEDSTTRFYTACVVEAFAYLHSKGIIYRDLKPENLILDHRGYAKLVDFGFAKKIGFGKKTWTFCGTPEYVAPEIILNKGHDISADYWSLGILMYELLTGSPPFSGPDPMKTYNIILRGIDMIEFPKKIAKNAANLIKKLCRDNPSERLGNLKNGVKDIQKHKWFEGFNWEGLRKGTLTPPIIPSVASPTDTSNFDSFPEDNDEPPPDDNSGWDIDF", "experiment": "Kinase activity of purified PKG1^RQ", "type": "biochemical", "conditions": "purified enzyme", "experimental": "PKG1 Purification and Activity Assays. Wild type and mutant PKG1^RQ were expressed with N-terminal FLAG epitope tags in transiently-transfected 293T cells (ATCC, CRL3216), purified with anti-FLAG beads and eluted with FLAG peptide, and kinase activity assays were performed.^41 Kinase activity in SMC and aortic extracts was measured using an optimized peptide in the presence of 1.25 μM protein kinase inhibitor peptide (PKI) to inhibit cAMP-dependent protein kinase.^65 Assays were performed with [γ-^32PO4]ATP (1.3 Ci/mmol; 50 μM) in the presence and absence of 3 μM cGMP, and were linear with time and protein concentration. In some assays, the PKG-specific inhibitory peptide DT2 was included at 10 μM."}, "human aortic SMCs": {"system": "human aortic SMCs", "experiment": "Western blots (VASP phosphorylation, JNK activation) and OxyBlot protein oxidation in human SMCs", "type": "cell-based", "experimental": "Western Blotting. Following anesthesia with ketamine (100 mg/kg) and xylazine (10 mg/kg) by intraperitoneal injection, mice were exsanguinated and perfused with ice-cold phosphate-buffered saline (PBS) containing protease inhibitor cocktail (Calbiochem #539131). Aortas were excised, cleaned from surrounding tissue, and snap-frozen in liquid nitrogen within 15 min of euthanasia. Frozen aortas were pulverized and sonicated (3×10 sec) in ice-cold RIPA buffer (50 mM NaCl, 50 mM Tris-HCl, pH 8, 1% NP-40, 0.1% SDS, 0.5% sodium deoxycholate) supplemented with 1 mM NaF, 1 mM β-glycerolphosphate, and protease inhibitor cocktail. Western blots were developed with primary antibodies specific for PKG1 (1:1000, Cell Signaling Technology; 3248, […] (1:1000, Cell Signaling Technology; 3114), GAPDH (1:1000, Cell Signaling Technology; 2118), β-actin (1:5000, Santa Cruz Biotechnology; 47778), and JNK-phospho-Thr^183/Tyr^185 (1:1000, Cell Signaling Technology; 9251). Blots were developed and visualized with enhanced chemiluminescence using LI-COR Odyssey (with ImageStudio, V5) or with film in the linear range of exposure (with densitometry scanning using ImageJ (V1.51). Protein carbonyl groups (aldehydes and ketones) were detected using the OxyBlot™ Protein Oxidation Detection Kit (Millipore EMD; S7150). Unprocessed scans of blots are provided in the Source Data file.\nSMC Culture and Adenovirus Infection. Murine aortic SMCs were isolated from the aortas of 8-12 week old wild type and PKG1^RQ/+ mice and were cultured in Smooth Muscle Basal Media (SmBM) containing 20% FBS, pyruvate, HEPES, L-glutamine, penicillin/streptomycin and growth factors (SmBM Bullet kit; CC-4149 from Lonza), as previously described.^69 Two independent cell isolates from wild type and PKG1^RQ mice were used at passage one. Human primary aortic SMCs were purchased from Lifeline Cell Technology (Frederick, MD, FC-0015) and cultured in VascuLife Basal Medium supplemented with recombinant epidermal growth factor, insulin, and fibroblast growth factor-b, ascorbic acid, L-glutamine, 20% FBS, gentamycin, and amphotericin (Vasculife SMC LifeFactors kit; LS-1040 from Lifeline Technologies). Human SMCs were used at passages 3-6. Adenovirus was generated using the ViraPower Adenoviral Expression System (Thermo Fisher).^67 Human SMCs were infected with virus expressing wild type or mutant human PKG1α (containing the R177Q mutation); the MOI was 3-10 and titrated to produce wild type and mutant kinase at 2-3 fold the level of endogenous PKG1 at 72 h post infection. […] For knock-down of NOX2 and NOX4, SMCs were infected with adenovirus expressing shNOX2 or shNOX4 oligomers (downstream of the U6 promoter) at an MOI of 100; H2O2 production and NADPH oxidase activity assays were performed 48 h later (as described below)."}, "Prkg1^RQ/+ mice [1]": {"system": "Prkg1^RQ/+ mice", "experiment": "Aging study: cobinamide in drinking water, Prkg1^RQ/+ mice", "type": "in vivo"}, "wild type mice": {"system": "wild type mice", "experiment": "Cobinamide treatment: effects and toxicity in mice", "type": "in vivo", "experimental": "(§1) Randomization and Drug Treatment of Mice. At the time of weaning, male and female litter mates were separated and randomly assigned to new cages. At the age of 6 months (aging studies) or 10-14 weeks (TAC studies), matched cages containing mice born within a three week period were randomly assigned to treatment versus vehicle groups. For aging studies, some mice received 1 mM trihistidyl-cobinamine (Cbi) in the drinking water, starting from the age of 6 months until 12 months. For gene expression studies, mice were treated with 1 mM Cbi for one month only, from 11-12 months of age. For TAC studies, some mice received 1 mg/ml N-acetylcysteine (NAC) in the drinking water starting 4 weeks before until 2 weeks after the surgery. The drugs were dissolved freshly each week and filter-sterilized; fluid intake was monitored weekly. The Cbi dose was calculated to be 50 mg/kg/d, and the NAC dose was 500 mg/kg/d. Aquohydroxyl-cobinamide was synthesized from cobalamine by removal of the 5,6-dimethyl-benzimidazol ring; trihistidyl-cobinamide was obtained by adding three molar equivalents of L-histidine to the aquohydroxyl cobinamide.^63 Purity of the drug was >95% by high-pressure liquid chromatography."}, "Prkg1^RQ/+ mice [2]": {"system": "Prkg1^RQ/+ mice", "experiment": "Aortic gene expression by quantitative RT-PCR after Cbi treatment", "type": "in vivo", "conditions": "12 month-old Prkg1^RQ/+ mice, 1 mM Cbi in drinking water for 1 month", "experimental": "as §1\nQuantitative RT-PCR. Aortas were dissected and snap-frozen as described above; they were pulverized and immersed in Trizol (Molecular Res. Center, TR118). Total RNA was isolated, reverse-transcribed using iScript cDNA synthesis kit (Bio-Rad), and PCR was performed using a MX3005P real-time PCR detection system with Brilliant II SYBR Green Mix (Agilent Technologies) as described.^67 All primers were intron-spanning (except for 18S rRNA), and were tested with serial cDNA dilutions. Relative changes in mRNA expression were analyzed using the comparative 2^−ΔΔCt method, with 18S rRNA and phosphoglycerate kinase-1 serving as internal controls.^68"}, "[3]": {"conditions": "Prkg1^RQ/+ mice, 1 mM Cbi in drinking water from age 6 to 12 months"}}, "note": "“Also recorded” adds a separate entry of the source."}
{"substance": "trihistidyl-cobinamide [Cbi]", "values": [{"measurement": "activity of purified PKG1^RQ", "setting": "PKG1^RQ", "value": "no effect"}, {"measurement": "H2O2-induced JNK activation", "setting": "human aortic SMCs; human SMCs", "value": "decreased"}, {"measurement": "H2O2-induced protein oxidation", "setting": "human aortic SMCs; human SMCs", "value": "decreased"}, {"measurement": "protein oxidation in PKG1^RQ-expressing cells", "setting": "human aortic SMCs; human SMCs expressing PKG1^RQ", "value": "reduced protein oxidation"}, {"measurement": "PKG activity in aortic extracts after treatment of the mice", "setting": "Prkg1^RQ/+ mice [1]; Cbi-treated mice", "value": "nor did Cbi treatment of the mice affect PKG activity"}, {"measurement": "prevention of age-related aortic pathology, including aortic dilation", "setting": "Prkg1^RQ/+ mice [1]; Prkg1^RQ/+ mice", "value": "highly effective"}, {"measurement": "SMC apoptosis in aortas", "setting": "Prkg1^RQ/+ mice [1]; [3]", "value": "reduced oxidative stress markers and SMC apoptosis in aortas of Prkg1^RQ/+ mice to values in WT mice"}, {"measurement": "SMC loss", "setting": "Prkg1^RQ/+ mice [1]; [3]", "value": "completely prevented"}, {"measurement": "elastin fiber breaks", "setting": "Prkg1^RQ/+ mice [1]; [3]", "value": "reduced elastin fiber breaks and media collagen content to levels in WT mice"}, {"measurement": "media collagen content", "setting": "Prkg1^RQ/+ mice [1]; [3]", "value": "reduced elastin fiber breaks and media collagen content to levels in WT mice"}, {"measurement": "oxidative stress markers in aortas", "setting": "Prkg1^RQ/+ mice [1]; [3]", "value": "reduced oxidative stress markers and SMC apoptosis in aortas of Prkg1^RQ/+ mice to values in WT mice; also recorded: reduced oxidative stress markers in the aorta"}, {"measurement": "aortic dilation", "setting": "Prkg1^RQ/+ mice [1]; Prkg1^RQ/+ mice, 1 mM Cbi in drinking water from age 6 to 12 months, ultrasound", "value": "completely prevented"}, {"measurement": "amount of Cys^43-oxidized, cross-linked PKG1 dimer in aortas", "setting": "Prkg1^RQ/+ mice [1]; wild type and Prkg1^RQ/+ mice", "value": "no effect"}, {"measurement": "serum homocysteine concentration", "setting": "wild type mice; Cbi-treated mice", "value": "normal"}, {"measurement": "serum methylmalonic acid concentration", "setting": "wild type mice; Cbi-treated mice", "value": "normal"}, {"measurement": "vitamin B12-dependent functions", "setting": "wild type mice; Cbi-treated mice", "value": "did not affect"}, {"measurement": "toxicity", "setting": "wild type mice; judged by normal weight, clinical appearance, blood counts, and liver and kidney function tests", "value": "no discernible toxicity"}, {"measurement": "effects in wild type mice", "setting": "wild type mice; wild type mice, Cbi in drinking water", "value": "no significant effects"}, {"measurement": "Ctgf mRNA in aortas", "setting": "Prkg1^RQ/+ mice [2]", "value": "reduced all five transcripts"}, {"measurement": "Hif1a mRNA in aortas", "setting": "Prkg1^RQ/+ mice [2]", "value": "reaching levels similar to those observed in wild type mice"}, {"measurement": "Nox4 mRNA in aortas", "setting": "Prkg1^RQ/+ mice [2]", "value": "reduced all five transcripts"}, {"measurement": "Tgfb1 mRNA in aortas", "setting": "Prkg1^RQ/+ mice [2]", "value": "reduced all five transcripts"}, {"measurement": "Vegfa mRNA in aortas", "setting": "Prkg1^RQ/+ mice [2]", "value": "reaching levels similar to those observed in wild type mice"}]}
